Usually GI50 stands for the concentration at which growth is held to half of that of the control. One may read the EC50 as the concentration needed to bring the measured effect to its halfway point.

The source of these data is patent publication US10227315B2, “Mitochondrial uncouplers for treatment of metabolic diseases and cancer” (RUTGERS, THE STATE UNIVERSITY OF NEW JERSEY, priority 2016, dated 2019).

Series [1] relates to mouse pancreatic cancer cell Panc 2 cells, or human pancreatic cancer Panc 1 cells. Put plainly: Cell cycle progression (G0/G1 arrest), PI staining, flow cytometry. It is filed as cell-based. Conditions: 48 h treatment. Here is the method:
The effect of example compounds on cell cycle progression was analyzed. The tumor cells, mouse pancreatic cancer cell Panc 2 cells, or human pancreatic cancer Panc 1 cells, were treated with the individual compounds at concentrations that were efficacious for mitochondrial uncoupling for 48 h, whereas the control group was treated with vehicle DMSO. Cells were then fixed with ice-cold 70% ethanol on ice for 30 minutes. After that, 5 μl of propidium iodide (PI) (Sigma, P 4170, 1 mg/ml) solution and 50 μl of RNAse A (Sigma, R-4875) solutions were added to the fixed cells, which were then kept for 30 minutes in the dark at room temperature. The cell cycle profile of the cells was analyzed by flow cytometry. […] Table IV below summarizes the activity of other example compounds on inducing G0/G1 cell cycle arrest.
A general note: In flow cytometry, cells or beads pass a laser one at a time.

Another series deals with Cancer cells. Put plainly: Clonogenicity of cancer cells, colony counting. It is filed as cell-based. The conditions noted are these: 200 cells per well, 10 days. As to the method: The impact of example compounds on clonogenicity was analyzed. Cancer cells were plated in 6-well plates at 200 cells per well. Cells were treated with individual compounds at various concentrations. Cells were maintained with changes of the medium plus compounds for 10 days. The colonies were then fixed in 1:3 Acetic acid—Methanol solution for 5 minutes, stained with 0.02% crystal violet for 20 minutes and counted.

Series [2] deals with mouse myoblast C2C12 cells. The experiment in a line: Oxygen consumption rate (OCR) assay with Seahorse XF96 or XF24, mitochondrial uncoupling. The conditions noted are these: 10% fetal bovine serum, in the presence of oligomycin 2.5 μM, read-out: Cmin (minimal concentration to induce ATP synthase-independent OCR increase). It is filed as cell-based. From the text: By definition, mitochondrial uncoupling is the decoupling of mitochondrial electron transport chain activity (mitochondrial oxidation) from ATP synthesis by mitochondrial ATP synthase. Technically, mitochondrial uncoupling activity is defined by the ability of a chemical compound to induce oxygen consumption of cells or isolated mitochondria in the presence of a mitochondrial ATP synthase inhibitor such as oligomycin. Accordingly, we determined mitochondrial uncoupling activity by oxygen consumption rate (OCR) assay with a Seahorse XF96 or a Seahorse XF24 instrument following the vendor's instruction, using mouse myoblast C2C12 cells growing in medium containing 10% fetal bovine serum. […] The minimal concentration (Cmin) of each compound under which OCR is induced in the presence of oligomycin, was determined.

The subject of series [3] is Human colon cancer HCT116 cell line and human lung cancer cell line H1299. The experiment in a line: Cancer cell growth inhibition, NCI protocol, SRB staining. It is filed as cell-based. Conditions: 48 h incubation, HCT116 and H1299 cells, read-out: GI50, 50% growth inhibition activity. As to the method: The effect of example compounds on cancer cell growth was evaluated. The cell growth inhibition assays were performed using a protocol standardized by National Cancer Institute (NCI) for evaluating anti-cancer drugs (https://dtp.cancer.gov/discovery_development/nci-60/methodology.htm). Human colon cancer HCT116 cell line and human lung cancer cell line H1299 were used for the assays. The human tumor cells were inoculated into 96 well microtiter plates. After cell inoculation, the microtiter plates were incubated for cell growth for 24 h prior to addition of compounds. After 24 h, two plates of each cell line were fixed in situ with TCA, to represent a measurement of the cell population for each cell line at the time of compound addition (Tz). Test compounds were solubilized in dimethyl sulfoxide, At the time of test compound addition, five 10-fold or ½ log serial dilutions were made to provide a total of five test compound concentrations plus control. Aliquots of 100 μl of these different test compound dilutions were added to the appropriate microtiter wells already containing 100 μl of medium, resulting in the required final test compound concentrations. Following test compound addition, the plates were incubated for an additional 48 h. The assay was terminated by the addition of cold TCA, Cells were fixed in situ with 50 μl of cold 50% (w/v) TCA (final concentration, 10% TCA), washed five times with tap water and air dried. Sulforhodamine B (SRB) solution (100 ul) at 0.4% (w/v) in 1% acetic acid was added to each well, and plates were incubated for 10 minutes at room temperature. After staining, unbound dye was removed by washing five times with 1% acetic acid and the plates were air dried. […] Using the seven absorbance measurements [time zero, (Tz), control growth, (C), and test growth in the presence of compound at the five concentration levels (Ti)], the percentage growth was calculated at each of the test compound concentrations levels.
In general terms: The SRB assay estimates cell density from bound dye.

Series [4] relates to NIH-3T3 cells, or HepG2 cells. The experiment in a line: Mitochondrial membrane potential assay, TMRE staining. It is filed as cell-based. The conditions noted are these: 2 h; two hours treatment, TMRE 100 nM; read-out: EC50, mitochondrial membrane potential reduction (TMRE staining reduced to about 50%). As to the method:
Mitochondrial uncoupling may also lead to a reduction of mitochondrial membrane potential. We performed mitochondrial membrane potential assay using TMRE (tetramethylrhodamine ethyl ester) staining method with cultured mammalian cells, the NIH-3T3 cells, or HepG2 cells. Cells were seeded onto 6-well plates and cultured in DMEM medium supplemented with 10% fetal bovine serum and 2 mM glutamine. Cells were allowed to grow to logarithmic growth phase prior to experiments. The cells were treated with each individual compound at various concentrations for two hours, followed by staining with TMRE at final concentration of 100 nM for 15 minutes. The cells were then washed once with PBS, and examined under fluorescence microscopy. Cells treated with various concentrations of niclosamide ethanolamine were used as positive control. Reduction of mitochondrial TMRE staining was estimated as a quantification of mitochondrial uncoupling activity. […] The following table (Table II) summarizes the activity of individual compounds in reducing mitochondrial membrane potential in cultured mammalian cells.

Series [5] has as its system HFD-induced diabetic mouse model. The experiment in a line: High-fat diet (HFD)-induced fatty liver and diabetic mouse model. It is filed as in vivo. The conditions noted are these: HFD containing 600 ppm compound. From the text:
To test the efficacy of compounds in treating type 2 diabetes in vivo, we used Compound 28 as an example, and determined its effect in reducing blood glucose, reducing blood insulin concentration, improving insulin sensitivity and reducing fatty liver in a clinically relevant mouse model, the HFD-induced fatty liver and diabetic model. C57B6/J male mice were fed HFD (60% calorie from fat) for 4 months, starting at age of 2 months, to induce high blood glucose, high blood insulin, and insulin tolerance symptoms of type 2 diabetes as well as fatty liver. The mice then either continued with HFD or with HFD containing 600 ppm Compound 28. Blood glucose, blood insulin levels were measured and glucose tolerance assay was performed to measure insulin sensitivity. The mice were sacrificed and the effect of Compound 28 on fatty liver development was evaluated by comparing the liver weight.

The test system of series [6] is Panc 2 cells injected into the spleen of NOD-scid mice. The experiment in a line: Hepatic metastasis of pancreatic cancer mouse model. Conditions: chow containing 750 ppm compound. It is filed as in vivo. Here is the method: The in vivo anti-cancer efficacy of an example compound, Compound 28, was examined using a well-established hepatic metastasis of pancreatic cancer mouse model. The mouse pancreatic cancer cells, Panc 2 cells (0.25 million cells), were injected into the spleen of immune compromised NOD-scid mice. The mice were randomized to two groups (n=6 each group), one group was fed normal chow, the second group was fed chow containing 750 ppm Compound 28. Three weeks later, mice were sacrificed and the hepatic metastasis of the pancreatic cancer was observed (FIGS. 5A-5B) and quantified (FIGS. 6A-6B) in control and Compound 28 treated mice.

With `Cc1cc(Cl)cc(C(=O)Nc2nc3ccc(C(F)(F)F)cc3s2)c1O` [Compound 1, 5-Chloro-2-hydroxy-3-methyl-N-(6-(trifluoromethyl)benzo[d]thiazol-2-yl)benzamide], the “effective concentration that can arrest cell cycle at G0/G1 phase” value in series [1] was “*** (*** <10 μM)”. In addition, the “IC95, Concentration that reduces clonogenicity by 95%” value in the series on Cancer cells is “*** (*** <10 μM)”.

Consider `O=C(Nc1nc2c(F)cc(F)cc2s1)c1cc(Cl)ccc1O` [Compound 23, 5-Chloro-N-(4,6-difluorobenzo[d]thiazol-2-yl)-2-hydroxybenzamide], for which the minimal effective concentration in series [2] is less than 10 µM. For the same molecule, in series [3], the GI50 is less than 10 µM.

For `O=C(Nc1nc2c(C(F)(F)F)cc(F)cc2s1)c1cc(Cl)ccc1O` [Compound 24, 5-Chloro-N-(6-fluoro-4-(trifluoromethyl)benzo[d]thiazol-2-yl)-2-hydroxybenzamide], in series [2], the minimal effective concentration was less than 10 µM. Further, the GI50 in series [3] is less than 10 µM. For the same molecule, the EC50 in series [4] is less than 10 µM.

For `CCc1cc(Cl)cc(C(=O)Nc2nc3ccc(C(F)(F)F)cc3s2)c1O` [Compound 27, 5-Chloro-3-ethyl-2-hydroxy-N-(6-(trifluoromethyl)benzo[d]thiazol-2-yl)benzamide], in series [2], the minimal effective concentration was less than 10 µM. Also, the “effective concentration that can arrest cell cycle at G0/G1 phase” value in series [1] is “*** (*** <10 μM)”. The “IC95, Concentration that reduces clonogenicity by 95%” value with Cancer cells is on record as “*** (*** <10 μM)”. In addition, in series [3], the GI50 was less than 10 µM. In series [4], the EC50 was less than 10 µM.

With `Cc1cc(Cl)cc(C(=O)Nc2nc3ccc(C(F)(F)F)cc3s2)c1O` [Compound 28, 5-Chloro-2-hydroxy-3-methyl-N-(6-(trifluoromethyl)benzo[d]thiazol-2-yl)benzamide ethanolamine], the minimal effective concentration in series [2] was less than 10 µM. Also, in series [5] (C57B6/J male mice), the blood glucose concentration result is on record as “markedly reduced”, the blood insulin concentration result is “markedly reduced”, the “fatty liver weight caused by high fat diet” value is listed as “reduced fatty liver weight” and the insulin sensitivity result was “improves insulin sensitivity”. Further, the plasma concentration entry in series [5] was “at an efficacious concentration that uncouples mitochondria”. Also, the GI50 in series [3] is less than 10 µM. In addition, the blood plasma concentrations result in series [6] is given as “in the range of efficacious concentration for uncoupling mitochondria”. Also, in series [6] (three weeks), the hepatic tumor metastasis entry is listed as “little or no hepatic tumor metastasis”, the metastatic tumor volume result is “dramatically reduced” and the “number of metastatic tumor nodules” value is “dramatically reduced”.

Take `Cc1cc(Cl)cc(C(=O)Nc2nc3c(C(F)(F)F)cccc3s2)c1O` [Compound 31, 5-Chloro-2-hydroxy-3-methyl-N-(4-(trifluoromethyl)benzo[d]thiazol-2-yl)benzamide]: the minimal effective concentration in series [2] was less than 10 µM. For the same molecule, the GI50 in series [3] is less than 10 µM.

`CC(C)c1cc(Cl)cc(C(=O)Nc2nc3ccc(C(F)(F)F)cc3s2)c1O` [Compound 38, 5-Chloro-2-hydroxy-3-isopropyl-N-(6-(trifluoromethyl)benzo[d]thiazol-2-yl)benzamide]: in series [2], the minimal effective concentration was less than 10 µM. The “effective concentration that can arrest cell cycle at G0/G1 phase” value in series [1] was “*** (*** <10 μM)”. For the same molecule, the “IC95, Concentration that reduces clonogenicity by 95%” value in the series on Cancer cells is listed as “*** (*** <10 μM)”. Further, the GI50 in series [3] is less than 10 µM. Further, the EC50 in series [4] was less than 10 µM.

Take `Cc1cc(Cl)cc(C(=O)Nc2nc3c(F)cc(F)cc3s2)c1O` [Compound 40, 5-Chloro-N-(4,6-difluorobenzo[d]thiazol-2-yl)-2-hydroxy-3-methylbenzamide]: the minimal effective concentration in series [2] is less than 10 µM. Besides, the GI50 in series [3] is less than 10 µM. Further, in series [4], the EC50 was less than 10 µM.

Regarding `Cc1cc(Cl)cc(C(=O)Nc2nc3cccc(C(F)(F)F)c3s2)c1O` [Compound 42, 5-Chloro-2-hydroxy-3-methyl-N-(7-(trifluoromethyl)benzo[d]thiazol-2-yl)benzamide], in series [2], the minimal effective concentration was greater than 25 µM. In addition, the EC50 in series [4] was greater than 25 µM.

On to `O=C(Nc1nc2ccc(C(F)(F)F)cc2s1)c1cc(Cl)cc(CO)c1O` [Compound 49, 5-Chloro-2-hydroxy-3-(hydroxymethyl)-N-(6-(trifluoromethyl)benzo[d]thiazol-2-yl)benzamide], for which the minimal effective concentration in series [2] was greater than 25 µM. In series [4], the EC50 was greater than 25 µM.

As for `Cc1cc(Cl)cc(C(=O)Nc2nc3c(C(F)(F)F)cc(C(F)(F)F)cc3s2)c1O` [Compound 50, N-(4,6-Bis(trifluoromethyl)benzo[d]thiazol-2-yl)-5-chloro-2-hydroxy-3-methylbenzamide], the minimal effective concentration in series [2] is less than 10 µM. Besides, the EC50 in series [4] was less than 10 µM.

As for `Cc1cc(Cl)cc(C(=O)Nc2nc3ccc(OC(F)(F)F)cc3s2)c1O` [Compound 51, 5-Chloro-2-hydroxy-3-methyl-N-(6-(trifluoromethoxy)benzo[d]thiazol-2-yl)benzamide], in series [2], the minimal effective concentration was less than 10 µM. In addition, the EC50 in series [4] was less than 10 µM.

Regarding `O=C(Nc1nc2ccc(C(F)(F)F)cc2s1)c1cc(Cl)cc2nn[nH]c12` [Compound 58, 5-Chloro-N-(6-(trifluoromethyl)benzo[d]thiazol-2-yl)-1H-benzo[d][1,2,3]triazole-7-carboxamide], in series [2], the minimal effective concentration was greater than 25 µM. Moreover, the EC50 in series [4] was greater than 25 µM.
